These results are taken from US20230100838A1 (Revolution Medicines, Inc., priority 2019, published 2023).

Type in all cases: binding
The target in assay [1] is T1, GDP-loaded K-Ras (1-169) C51S, C80L, C118S (Homo sapiens, UniProt P01116, C118S/C51S/C80L).
T1 construct: GDP-loaded K-Ras (1-169) C51S, C80L, C118S
Description: K-Ras WT (GDP) cross-linking assay (conjugate formation, TOF mass spectrometry). Also on record: key: 0: No observed x-linking; +: 0 < x ≤ 20; ++: 20 < x ≤ 40; +++: 40 < x ≤ 100. To be noted: Table 4; percent covalently modified K-Ras by MS; room temperature; typical compound conc. 2, 10, 25 μM, endpoints 1 and 24 h. The procedure, abridged:
(§1)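 5 μM protein (final, from 50 μM) in HEPES/NaCl/MgCl2 buffer pH 7.4 with compound typically at 2, 10 and 25 μM, room temperature, 1 and 24 h endpoints; formic acid quench. Intact-protein LC–TOF MS; percent modification is covalent adduct peak height over total K-Ras peak height.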

Assay [2] deals with K-Ras G12S (Homo sapiens, UniProt P01116, G12S). Description: K-Ras G12S cross-linking assay (comparable procedure, conjugate formation, TOF mass spectrometry). More on the design: key: 0: No observed x-linking. To be noted: Table 4, percent covalently modified K-Ras by MS. The procedure: Protocol: K-Ras G12D(GDP) Cross-Linking Assay
Note: while the following protocol outlines the procedure for K-Ras G12D(GDP), a person of skill in the art may substitute other Ras proteins, and may also substitute a non-hydrolyzable GTP analog for GDP to study GTP bound Ras protein.
GDP-loaded K-Ras (1-169) G12D, C51S, C80L, C118S and GDP-loaded K-Ras (1-169) C51S, C80L, C118S were adjusted to 50 μM in K-Ras assay buffer (12.5 mM HEPES, 75 mM NaCl and 1 mM MgCl2 at pH 7.4). A 5 μL aliquot of each protein solution was added to each well of a 96-well microplate containing 40 μL of assay buffer. Initial compound stocks were prepared in DMSO at 100 times their final assay concentration. Compounds were then diluted 10-fold into K-Ras assay buffer to 10 times their final concentration. A 5 μL aliquot of each diluted compound solution was added to each protein solution in the 96-well microplate to initiate the reaction, which then proceeded at room temperature. Typical final compound concentrations were 2, 10, and 25 μM. At each time point, the reactions were analyzed immediately or quenched with 5 μL of a 5% formic acid solution and kept at 4° C. until analysis. Typical assay endpoints were 1 and 24 h.
Data collection took place on an Agilent 6230 TOF Mass Spectrometer. Complete reactions were injected onto a C4 reverse-phase column to separate protein from buffer components prior to entering the mass spectrometer. The proteins were eluted from the column by increasing acetonitrile fraction in the mobile phase and fed directly into the mass analyzer. Initial analysis of raw data took place in Agilent MassHunter BioConfirm software and consisted of deconvolution of multiple protein charge states with the maximum entropy algorithm, with a mass step of 1 Da. The heights of all deconvoluted protein masses were exported for further data analysis. The percent modification of each protein was then determined by calculating the peak height of the covalently modified K-Ras species as a percentage of the sum total of K-Ras protein peak height.

In assay [3] the target is T2, GDP-loaded K-Ras (1-169) G12D, C51S, C80L, C118S (Homo sapiens, UniProt P01116, C118S/C51S/C80L/G12D).
T2 construct: GDP-loaded K-Ras (1-169) G12D, C51S, C80L, C118S
Description: K-Ras G12D(GDP) cross-linking assay (conjugate formation, TOF mass spectrometry). More on the design: key: 0: No observed x-linking; +: 0 < x ≤ 20; ++: 20 < x ≤ 40; +++: 40 < x ≤ 100. To be noted: Table 4; percent covalently modified K-Ras by MS; room temperature; typical compound conc. 2, 10, 25 μM, endpoints 1 and 24 h. The procedure, abridged: as §1

For the molecule `Cc1cccc2cccc(N3CCc4c(nc(OC[C@@H]5CCCN5C)nc4N(C)CCN=C=NCc4ccc(Cl)cc4)C3)c12` [Example 28, N-(2-((((4-chlorobenzyl)imino)methylene)amino)ethyl)-N-methyl-7-(8-methylnaphthalen-1-yl)-2-(((S)-1-methylpyrrolidin-2-yl)methoxy)-5,6,7,8-tetrahydropyrido[3,4-d]pyrimidin-4-amine], in assay [1], the “WT x-linking (%)” value was “+ (0 < x ≤ 20)”. The “G12S x-linking (%)” value in assay [2] is listed as “++ (10 < x ≤ 100)”. Moreover, the “G12D x-linking (%)” value in assay [3] was “++ (20 < x ≤ 40)”.

With `COc1ccc(CN=C=NCCN(C)c2nc(OC[C@@H]3CCCN3C)nc3c2CCN(c2cccc4cccc(C)c24)C3)cc1` [Example 29, N-(2-((((4-methoxybenzyl)imino)methylene)amino)ethyl)-N-methyl-7-(8-methylnaphthalen-1-yl)-2-(((S)-1-methylpyrrolidin-2-yl)methoxy)-5,6,7,8-tetrahydropyrido[3,4-d]pyrimidin-4-amine], the “WT x-linking (%)” value in assay [1] is listed as “++ (20 < x ≤ 100)”. The “G12S x-linking (%)” value in assay [2] was “++ (10 < x ≤ 100)”. In addition, the “G12D x-linking (%)” value in assay [3] was “+++ (40 < x ≤ 100)”.

In the case of `CCCN=C=NCCCN(C)c1nc(OC[C@@H]2CCCN2C)nc2c1CCN(c1cccc3cccc(C)c13)C2` [Example 30, N-methyl-7-(8-methylnaphthalen-1-yl)-2-(((S)-1-methylpyrrolidin-2-yl)methoxy)-N-(3-(((propylimino)methylene)amino)propyl)-5,6,7,8-tetrahydropyrido[3,4-d]pyrimidin-4-amine], in assay [1], the “WT x-linking (%)” value is given as “++ (20 < x ≤ 100)”. In assay [2], the “G12S x-linking (%)” value is given as “++ (10 < x ≤ 100)”. Besides, the “G12D x-linking (%)” value in assay [3] is “+++ (40 < x ≤ 100)”.

Take `Cc1cccc2cccc(N3CCc4c(nc(OC[C@@H]5CCCN5C)nc4N(C)CCCN=C=NCc4ccccc4)C3)c12` [Example 31, N-(3-(((benzylimino)methylene)amino)propyl)-N-methyl-7-(8-methylnaphthalen-1-yl)-2-(((S)-1-methylpyrrolidin-2-yl)methoxy)-5,6,7,8-tetrahydropyrido[3,4-d]pyrimidin-4-amine]: in assay [1], the “WT x-linking (%)” value was “++ (20 < x ≤ 100)”. Besides, the “G12S x-linking (%)” value in assay [2] was “++ (10 < x ≤ 100)”. The “G12D x-linking (%)” value in assay [3] was “+++ (40 < x ≤ 100)”.

Turning to `Cc1cccc2cccc(N3CCc4c(nc(OC[C@@H]5CCCN5C)nc4N(C)CCCN=C=NCc4ccc(Cl)cc4)C3)c12` [Example 32, N-(3-((((4-chlorobenzyl)imino)methylene)amino)propyl)-N-methyl-7-(8-methylnaphthalen-1-yl)-2-(((S)-1-methylpyrrolidin-2-yl)methoxy)-5,6,7,8-tetrahydropyrido[3,4-d]pyrimidin-4-amine], the “WT x-linking (%)” value in assay [1] was “+ (0 < x ≤ 20)”. The “G12S x-linking (%)” value in assay [2] is on record as “+ (0 < x ≤ 10)”. The “G12D x-linking (%)” value in assay [3] is reported as “+ (0 < x ≤ 20)”.

In the case of `COc1ccc(CN=C=NCCCN(C)c2nc(OC[C@@H]3CCCN3C)nc3c2CCN(c2cccc4cccc(C)c24)C3)cc1` [Example 33, N-(3-((((4-methoxybenzyl)imino)methylene)amino)propyl)-N-methyl-7-(8-methylnaphthalen-1-yl)-2-(((S)-1-methylpyrrolidin-2-yl)methoxy)-5,6,7,8-tetrahydropyrido[3,4-d]pyrimidin-4-amine], in assay [1], the “WT x-linking (%)” value is reported as “++ (20 < x ≤ 100)”. The “G12S x-linking (%)” value in assay [2] is reported as “++ (10 < x ≤ 100)”. Moreover, in assay [3], the “G12D x-linking (%)” value is “+++ (40 < x ≤ 100)”.

Regarding `Cc1cccc2cccc(N3CCc4c(nc(OC[C@@H]5CCCN5C)nc4N4CCN(C(=O)NCCCl)[C@@H](CC#N)C4)C3)c12` [Example 34, (S)—N-(2-chloroethyl)-2-(cyanomethyl)-4-(7-(8-methylnaphthalen-1-yl)-2-(((S)-1-methylpyrrolidin-2-yl)methoxy)-5,6,7,8-tetrahydropyrido[3,4-d]pyrimidin-4-yl)piperazine-1-carboxamide], the “WT x-linking (%)” value in assay [1] is “+ (0 < x ≤ 20)”. The “G12S x-linking (%)” value in assay [2] was “+ (0 < x ≤ 10)”. Moreover, in assay [3], the “G12D x-linking (%)” value is recorded as “+ (0 < x ≤ 20)”.

For `Cc1cccc2cccc(N3CCc4c(nc(OC[C@@H]5CCCN5C)nc4NCCNC(=O)NCCCl)C3)c12` [Example 36, (S)-1-(2-chloroethyl)-3-(2-((7-(8-methylnaphthalen-1-yl)-2-((1-methylpyrrolidin-2-yl)methoxy)-5,6,7,8-tetrahydropyrido[3,4-d]pyrimidin-4-yl)amino)ethyl)urea], in assay [1], the “WT x-linking (%)” value is “+ (0 < x ≤ 20)”. In addition, in assay [2], the “G12S x-linking (%)” value is “+ (0 < x ≤ 10)”. In addition, the “G12D x-linking (%)” value in assay [3] is listed as “+ (0 < x ≤ 20)”.

Turning to `Cc1cccc2cccc(N3CCc4c(nc(OC[C@@H]5CCCN5C)nc4NCCN(C)C(=O)NCCCl)C3)c12` [Example 37, (S)-3-(2-chloroethyl)-1-methyl-1-(2-((7-(8-methylnaphthalen-1-yl)-2-((1-methylpyrrolidin-2-yl)methoxy)-5,6,7,8-tetrahydropyrido[3,4-d]pyrimidin-4-yl)amino)ethyl)urea], the “WT x-linking (%)” value in assay [1] came out at 0. The “G12S x-linking (%)” value in assay [2] came to 0. In assay [3], the “G12D x-linking (%)” value was determined as 0.

Turning to `Cc1cccc2cccc(N3CCc4c(nc(OC[C@@H]5CCCN5C)nc4N4CCN(C5=NCCO5)[C@@H](CC#N)C4)C3)c12` [Example 38, 2-((S)-1-(4,5-dihydrooxazol-2-yl)-4-(7-(8-methylnaphthalen-1-yl)-2-(((S)-1-methylpyrrolidin-2-yl)methoxy)-5,6,7,8-tetrahydropyrido[3,4-d]pyrimidin-4-yl)piperazin-2-yl)acetonitrile], the “WT x-linking (%)” value in assay [1] is recorded as 0. In assay [2], the “G12S x-linking (%)” value was determined as 0. For the same molecule, in assay [3], the “G12D x-linking (%)” value amounted to 0.

Turning to `Cc1cccc2cccc(N3CCc4c(nc(OC[C@@H]5CCCN5C)nc4N4CCN(C5=NCCO5)CC4)C3)c12` [Example 39], in assay [1], the “WT x-linking (%)” value was 0. For the same molecule, the “G12S x-linking (%)” value in assay [2] came out at 0. In addition, in assay [3], the “G12D x-linking (%)” value was determined as 0.

For the molecule `Cc1cccc2cccc(N3CCc4c(nc(OC[C@@H]5CCCN5C)nc4NCCNC4=NCCO4)C3)c12` [Example 40, (S)—N^1-(4,5-dihydrooxazol-2-yl)-N^2-(7-(8-methylnaphthalen-1-yl)-2-((1-methylpyrrolidin-2-yl)methoxy)-5,6,7,8-tetrahydropyrido[3,4-d]pyrimidin-4-yl)ethane-1,2-diamine], the “WT x-linking (%)” value in assay [1] is recorded as “+ (0 < x ≤ 20)”. Besides, the “G12S x-linking (%)” value in assay [2] is recorded as “+ (0 < x ≤ 10)”. Further, the “G12D x-linking (%)” value in assay [3] was “+ (0 < x ≤ 20)”.

Turning to `Cc1cccc2cccc(N3CCc4c(nc(OC[C@@H]5CCCN5C)nc4NCCN(C)C4=NCCO4)C3)c12` [Example 41, (S)—N^1-(4,5-dihydrooxazol-2-yl)-N^1-methyl-N^2-(7-(8-methylnaphthalen-1-yl)-2-((1-methylpyrrolidin-2-yl)methoxy)-5,6,7,8-tetrahydropyrido[3,4-d]pyrimidin-4-yl)ethane-1,2-diamine], the “WT x-linking (%)” value in assay [1] is given as 0. For the same molecule, the “G12S x-linking (%)” value in assay [2] was found to be 0. The “G12D x-linking (%)” value in assay [3] was found to be 0.

Take `Cc1cccc2cccc(N3CCc4c(nc(OC[C@@H]5CCCN5C)nc4N4CCC(N(C)C(=O)C5CN5)CC4)C3)c12` (stereo partly drawn) [Example 42, N-methyl-(1-(7-(8-methylnaphthalen-1-yl)-2-(((S)-1-methylpyrrolidin-2-yl)methoxy)-5,6,7,8-tetrahydropyrido[3,4-d]pyrimidin-4-yl)piperidin-4-yl)aziridine-2-carboxamide]: in assay [1], the “WT x-linking (%)” value is listed as “+ (0 < x ≤ 20)”. In addition, the “G12S x-linking (%)” value in assay [2] is recorded as “+ (0 < x ≤ 10)”. In addition, the “G12D x-linking (%)” value in assay [3] is listed as “+ (0 < x ≤ 20)”.
